Experiments:
Assay in all cases: relative viability (nuclei count vs DMSO), 5 days (fraction); higher = more cells survive
[1] = tested on: EMC-BAC-2
Outline: (§1)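 Lung cancer cell lines, seeded in 1536-well plates, were treated the following day by pin tool with a single drug or with five library-drug doses (not always all listed) in √10 steps on top of a fixed anchor-drug dose. Cells were fixed and nuclei stained in one step after 5 days, and nuclei were counted. Relative viability is the nuclei count for treated wells divided by that for vehicle wells, reported as medians of duplicate plates.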

[2] = tested on: CAL-12T
Outline: as §1

[3] = tested on: HARA
Outline: as §1

[4] = tested on: NCI-H2009
Outline: as §1

[5] = tested on: HCC-366
Outline: as §1

[6] = tested on: NCI-H1437
Outline: as §1

[7] = tested on: NCI-H460
Outline: as §1

[8] = tested on: HOP-62
Outline: as §1

[9] = tested on: NCI-H23
Outline: as §1

[10] = tested on: NCI-H2228
Outline: as §1

[11] = tested on: LCLC-103H
Outline: as §1

[12] = tested on: NCI-H1755
Outline: as §1

[13] = tested on: NCI-H1395
Outline: as §1

[14] = tested on: NCI-H1792
Outline: as §1

[15] = tested on: COR-L 105
Outline: as §1

[16] = tested on: NCI-H727
Outline: as §1

[17] = tested on: SK-LU-1
Outline: as §1

[18] = tested on: HCC-827
Outline: as §1

[19] = tested on: A-427
Outline: as §1

[20] = tested on: NCI-H1915
Outline: as §1

[21] = tested on: SW 1573
Outline: as §1

## O=c1cc(N2CCOCC2)oc2c(-c3cccc4c3sc3ccccc34)cccc12 + CS(=O)(=O)N1CCN(Cc2cc3nc(-c4cccc5[nH]ncc45)nc(N4CCOCC4)c3s2)CC1 [Pictilisib] (partner 1 µM)
[1]; first compound 0.01 µM
  relative viability: 0.372
[1]; first compound 0.03162 µM
  relative viability: 0.518
[1]; first compound 0.1 µM
  relative viability: 0.559
[1]; first compound 0.3162 µM
  relative viability: 0.574
[1]; first compound 1 µM
  relative viability: 0.517
[2]; first compound 0.01 µM
  relative viability: 0.368
[2]; first compound 0.1 µM
  relative viability: 0.485
[2]; first compound 0.3162 µM
  relative viability: 0.551
[2]; first compound 1 µM
  relative viability: 0.326
[3]; first compound 0.01 µM
  relative viability: 0.315
[3]; first compound 0.03162 µM
  relative viability: 0.381
[3]; first compound 0.1 µM
  relative viability: 0.435
[3]; first compound 0.3162 µM
  relative viability: 0.362
[3]; first compound 1 µM
  relative viability: 0.457
[4]; first compound 0.01 µM
  relative viability: 0.802
[4]; first compound 0.03162 µM
  relative viability: 0.864
[4]; first compound 0.1 µM
  relative viability: 0.735
[4]; first compound 0.3162 µM
  relative viability: 0.796
[4]; first compound 1 µM
  relative viability: 0.813
[5]; first compound 0.01 µM
  relative viability: 0.197
[5]; first compound 0.03162 µM
  relative viability: 0.154
[5]; first compound 0.1 µM
  relative viability: 0.1
[5]; first compound 0.3162 µM
  relative viability: 0.154
[5]; first compound 1 µM
  relative viability: 0.137
[6]; first compound 0.01 µM
  relative viability: 0.455
[6]; first compound 0.03162 µM
  relative viability: 0.456
[6]; first compound 0.1 µM
  relative viability: 0.542
[6]; first compound 0.3162 µM
  relative viability: 0.478
[6]; first compound 1 µM
  relative viability: 0.412
[7]; first compound 0.01 µM
  relative viability: 0.403
[7]; first compound 0.03162 µM
  relative viability: 0.342
[7]; first compound 0.1 µM
  relative viability: 0.394
[7]; first compound 0.3162 µM
  relative viability: 0.384
[7]; first compound 1 µM
  relative viability: 0.319
[8]; first compound 0.01 µM
  relative viability: 0.755
[8]; first compound 0.03162 µM
  relative viability: 0.696
[8]; first compound 0.1 µM
  relative viability: 0.594
[8]; first compound 0.3162 µM
  relative viability: 0.649
[8]; first compound 1 µM
  relative viability: 0.697
[9]; first compound 0.01 µM
  relative viability: 0.529
[9]; first compound 0.03162 µM
  relative viability: 0.422
[9]; first compound 0.3162 µM
  relative viability: 0.513
[9]; first compound 1 µM
  relative viability: 0.442
[10]; first compound 0.03162 µM
  relative viability: 0.351
[10]; first compound 0.1 µM
  relative viability: 0.668
[10]; first compound 0.3162 µM
  relative viability: 0.39
[10]; first compound 1 µM
  relative viability: 0.512
[11]; first compound 0.01 µM
  relative viability: 0.64
[11]; first compound 0.03162 µM
  relative viability: 0.664
[11]; first compound 0.1 µM
  relative viability: 0.649
[11]; first compound 0.3162 µM
  relative viability: 0.627
[11]; first compound 1 µM
  relative viability: 0.577
[12]; first compound 0.01 µM
  relative viability: 0.288
[12]; first compound 0.03162 µM
  relative viability: 0.402
[12]; first compound 0.1 µM
  relative viability: 0.457
[12]; first compound 0.3162 µM
  relative viability: 0.458
[12]; first compound 1 µM
  relative viability: 0.395
[13]; first compound 0.01 µM
  relative viability: 0.587
[13]; first compound 0.03162 µM
  relative viability: 0.653
[13]; first compound 0.1 µM
  relative viability: 0.484
[13]; first compound 0.3162 µM
  relative viability: 0.623
[13]; first compound 1 µM
  relative viability: 0.627
[14]; first compound 0.01 µM
  relative viability: 0.286
[14]; first compound 0.03162 µM
  relative viability: 0.264
[14]; first compound 0.1 µM
  relative viability: 0.244
[14]; first compound 0.3162 µM
  relative viability: 0.274
[14]; first compound 1 µM
  relative viability: 0.252
[15]; first compound 0.01 µM
  relative viability: 0.347
[15]; first compound 0.03162 µM
  relative viability: 0.394
[15]; first compound 0.1 µM
  relative viability: 0.49
[15]; first compound 0.3162 µM
  relative viability: 0.422
[15]; first compound 1 µM
  relative viability: 0.439
[16]; first compound 0.01 µM
  relative viability: 0.587
[16]; first compound 0.03162 µM
  relative viability: 0.355
[16]; first compound 0.1 µM
  relative viability: 0.467
[16]; first compound 0.3162 µM
  relative viability: 0.39
[16]; first compound 1 µM
  relative viability: 0.266
[17]; first compound 0.01 µM
  relative viability: 0.609
[17]; first compound 0.03162 µM
  relative viability: 0.604
[17]; first compound 0.1 µM
  relative viability: 0.527
[17]; first compound 0.3162 µM
  relative viability: 0.481
[17]; first compound 1 µM
  relative viability: 0.587
[18]; first compound 0.01 µM
  relative viability: 1.04
[18]; first compound 0.03162 µM
  relative viability: 0.809
[18]; first compound 0.1 µM
  relative viability: 1.05
[18]; first compound 0.3162 µM
  relative viability: 1.01
[18]; first compound 1 µM
  relative viability: 0.997
[19]; first compound 0.01 µM
  relative viability: 0.902
[19]; first compound 0.03162 µM
  relative viability: 0.8
[19]; first compound 0.1 µM
  relative viability: 0.68
[19]; first compound 0.3162 µM
  relative viability: 0.635
[19]; first compound 1 µM
  relative viability: 0.742
[20]; first compound 0.01 µM
  relative viability: 0.953
[20]; first compound 0.03162 µM
  relative viability: 0.975
[20]; first compound 0.1 µM
  relative viability: 1.08
[20]; first compound 0.3162 µM
  relative viability: 0.99
[20]; first compound 1 µM
  relative viability: 0.909
[21]; first compound 0.01 µM
  relative viability: 0.549
[21]; first compound 0.03162 µM
  relative viability: 0.489
[21]; first compound 0.1 µM
  relative viability: 0.48
[21]; first compound 0.3162 µM
  relative viability: 0.452
[21]; first compound 1 µM
  relative viability: 0.471
